Results from publication PMC8880564, “Design, Synthesis, and Biological Evaluation of a Novel VEGFR-2 Inhibitor Based on a 1,2,5-Oxadiazole-2-Oxide Scaffold with MAPK Signaling Pathway Inhibition” (Pharmaceuticals, 2022).
“And” between values parts separate entries of the source, which are not always exact repeats. Equal values may be shown once.

What was measured:
MMP-9 = test: Western blot analysis in HepG2 cells; type: cell-based, human; conditions: HepG2, 48 h
Experimental: (§1) The mitogen-activated protein kinase (MAPK) pathway is considered to be a key player in the gene expression of survival, proliferative, and anti-apoptotic proteins. Aberrant dysregulation in the MAPK pathway activity has been linked to the overall poor prognosis in various cancers. […] Additionally, compound 12b was further tested against p38, MKK3, and JNK using ELISA assay protocols at a concentration of 11 µM. […] The overexpression of JNK might have contributed to the NO released from 12b and reactive oxygen species (ROS). In summary, the novel anticancer lead compound 12b is worthy of further investigation and activity improvement.
(§2) The cells were seeded (2.5 × 10^5 cells/mL) and treated as described above. After 48 h of incubation with compound 12b, cells were lysed by RIPA buffer containing 1x protease and phosphatase inhibitor cocktail (Thermo Scientific™, Waltham, MA, USA). The supernatant was collected after centrifugation at 4 °C and the Pierce BCA Protein Assay Kit (Thermo Scientific™, 23225, Waltham, MA, USA) was used for protein concentration detection. Proteins were then separated using SDS-PAGE at 100 V for 45 min. After that, the proteins were transferred to a nitrocellulose membrane. The membrane was subjected to a suitable primary antibody overnight. Then, an appropriate HRP-conjugated secondary antibody was used. GAPDH was used as a loading control. The membrane was developed using WesternBright® ECL (Advansta Inc., K-12045-D20, San Jose, CA, USA), and the signal was detected using ChemiDoc XRS^+ (1708265, Bio-Rad Laboratories, Hercules, CA, USA).

p53 = test: Western blot analysis in HepG2 cells; type: cell-based, human; conditions: HepG2, 48 h
Experimental: as §1, §2

total ERK = test: Western blot analysis in HepG2 cells; type: cell-based, human; conditions: HepG2, 48 h
Experimental: as §1, §2

p21 = test: Western blot analysis in HepG2 cells; type: cell-based, human; conditions: HepG2, 48 h
Experimental: as §1, §2

p27 = test: Western blot analysis in HepG2 cells; type: cell-based, human; conditions: HepG2, 48 h
Experimental: as §1, §2

pERK = test: Western blot analysis in HepG2 cells; type: cell-based, human; conditions: HepG2, 48 h
Experimental: as §1, §2

VEGFR-2 = VEGFR-2 (Homo sapiens, UniProt P35968); test: VEGFRx kinase assay (BPS Bioscience kit); conditions: VEGFR-2 inhibitory activity IC50, duplicate, luminescence kinase kit
Experimental: The kinase assay was performed according to BPS Bioscience® kinase assay kit protocols [17, 74, 75, 76, 77]. […] The master mixture (25 μL) was added to every well then inhibitor solution of each well, labeled as “Test Inhibitor”, was added. For the “Positive Control” and “Blank”, the same solution without inhibitor (Inhibitor buffer) was added. To the wells designated as “Blank”, 1x Kinase Buffer 1 was added. FLT1/VEGFR2/FLT3 enzyme was thawed on ice and diluted with 1x Kinase Buffer 1 then added to the wells designated “Positive Control” and “Test Inhibitor Control”. The plate was incubated at 30 °C for 45 min then ADP-Glo reagent/Kinase-Glo Max reagent was added to each well. The plate was covered with aluminum foil and incubated at room temperature for 15 min. The luminescence was measured using the microplate reader. In case of FLT1 and FLT3, the plate was incubated for 45 min, then Kinase Detection reagent was added to each well and the plate was covered with aluminum foil and incubated at room temperature for another 45 min. The luminescence was measured immediately using the Tecan–spark® reader. A “Blank” value was subtracted from all readings.

HepG2 cells [1] = test: Cell-cycle analysis by flow cytometry (PI); type: cell-based, human; conditions: HepG2, 48 h; 5.6 in DMSO-treated cells
Experimental: The mechanism of action of 12b was investigated by evaluating its effectiveness in modulating the cell cycle and induction of apoptosis.
According to Gray et al., HepG2 cells were seeded in a 6-well plate (2 mL/well) and incubated at 37 °C and 5% CO2 for 12 h. Cell synchronization at the G1 phase was performed by incubating the cells with serum-free medium for 12 h, then cells were treated with 5.5 or 11 μM of 12b. After 48 h of incubation, cells were washed twice with ice-cold 1× PBS and subjected to trypsinization. The detached cells were centrifuged at 500× g for 5 min at 4 °C. Then, the cell pellet was resuspended in ice-cold 1× PBS and fixed with absolute ethanol. After 2 h of incubation at −20 °C, the fixed cells were washed with ice-cold 1× PBS. The cell pellet was resuspended in propidium (PI)/RNase (BD Biosciences, BDB550825, Franklin Lakes, NJ, USA) and incubated for 30 min at room temperature (RT) in the dark, then the DNA content in each phase was measured by flow cytometry using BD FACS Calibur.

HepG2 cells [2] = test: Wound-healing assay; type: cell-based, human; conditions: HepG2, serum-free media, 24 h, vs DMSO-treated cells
Experimental: A wound-healing assay is a simple and economical assay used to investigate the anti-metastatic activity of compounds. Cells were treated with compound 12b in serum-free media for 24 h. After that, the cells were fixed with ice-cold methanol and air-dried, then stained with 0.5% crystal violet.

Bax = test: Quantitative RT-PCR for gene expression in HepG2 cells; type: cell-based, human; conditions: HepG2, 12 h
Excerpt: (§3) Epithelial cells express specific genes involved in maintaining apical–basal polarity and adherence, such as epithelial E-cadherin. The epithelial cells migrate to distant locations by over-expressing mesenchymal genes, including neuronal N-cadherin and vimentin [58]. Cancer aggressiveness has been positively correlated with the over-expression of N-cadherin. Therefore, in this study, the partial mechanism of activity of 12b was investigated, by quantitative RT-PCR, with respect to E-cadherin and N-cadherin. […] Additionally, the ability of 12b was confirmed by detecting the change in expression of both pro-apoptotic (Bax) and anti-apoptotic (BCL-2) genes. Compound 12b-treated HepG2 cells (for 12 h) expressed a low level of BCL-2 and over-expressed Bax (Figure 11A).
(§4) HepG2 cells were treated either with DMSO, 5.5 or 11 µM of 12b for 12 h, and then the total RNA was extracted by TRIzol™ Reagent (Invitrogen, Cat. No. 15596018). The RNA concentration and purity were evaluated using a Thermo Scientific™ NanoDrop™ One Microvolume UV-Vis Spectrophotometer. Four µg RNA was reverse transcribed to cDNA using the RevertAid First Strand cDNA Synthesis kit. The level of N-cadherin, E-cadherin, BCL-2, Bax, and GAPDH was detected using the SensiFAST™ SYBR® High-ROX Kit with the StepOne™ Real-Time PCR System (Applied Biosystems™). The expression level was firstly normalized to the level of GAPDH, then calculated as 2^−(ΔΔCt), where ΔCt 12b = (Ct […] Ct GAPDH); ΔCt DMSO = (Ct DMSO ™ Ct GAPDH); ΔΔCt = (ΔCt 12b ™ ΔCt DMSO). Ct is the cycle threshold.

N-cadherin = test: as above; type: cell-based, human; conditions: HepG2, 5.5 or 11 µM, 12 h
Excerpt: as §3, §4

E-cadherin = test: as above; type: cell-based, human; conditions: HepG2, 5.5 or 11 µM, 12 h
Excerpt: as §3, §4

BCL-2 = test: as above; type: cell-based, human; conditions: HepG2, 12 h
Excerpt: as §3, §4

[3] = test system: normal human skin fibroblast cells (HSF); test: Selectivity towards cancer cells, normal cells by MTT; type: cell-based; conditions: at a concentration as high as 50 µM, 48 h
Experimental: Furthermore, the selectivity index (SI) of compound 12b towards the various cancer cell lines was evaluated by detecting the required concentration to kill 50% of normal human skin fibroblast cells (HSF).
According to the procedures of Bézivin et al. (with minor modifications), the selectivity of compound 12b against cancer cell lines was evaluated by seeding human skin fibroblast cells (HSF) at 5 × 10^4 cells/mL in a 96-well plate and incubating them overnight at 37 °C and 5% CO2. On the second day, serial dilution of the compound 12b was added. After 48 h of incubation, the viability of HSF cells was determined by MTT assay as mentioned above and the selectivity index (SI) was calculated according to Equation (1):
Equation (1) Calculation of selectivity index. (1) SI=IC50 normal cells/IC50 cancer cell

Sequence of VEGFR-2 (P35968 789-1356 limits assumed): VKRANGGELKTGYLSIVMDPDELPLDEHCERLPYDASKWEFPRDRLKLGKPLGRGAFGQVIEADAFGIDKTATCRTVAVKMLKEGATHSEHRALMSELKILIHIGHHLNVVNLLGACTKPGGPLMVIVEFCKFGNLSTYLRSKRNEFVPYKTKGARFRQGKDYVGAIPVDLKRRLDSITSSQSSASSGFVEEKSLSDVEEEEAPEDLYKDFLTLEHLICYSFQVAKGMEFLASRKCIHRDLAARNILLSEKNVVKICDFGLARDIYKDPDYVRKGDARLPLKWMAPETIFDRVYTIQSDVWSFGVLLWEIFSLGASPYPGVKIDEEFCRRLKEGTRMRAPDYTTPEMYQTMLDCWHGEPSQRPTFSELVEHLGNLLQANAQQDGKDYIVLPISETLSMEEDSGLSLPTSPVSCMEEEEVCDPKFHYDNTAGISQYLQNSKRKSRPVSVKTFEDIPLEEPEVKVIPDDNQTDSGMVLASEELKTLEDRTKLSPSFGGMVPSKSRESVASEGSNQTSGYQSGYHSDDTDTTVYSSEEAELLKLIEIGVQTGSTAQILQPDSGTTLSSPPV

With `[O-][n+]1onc(-c2ccccc2)c1CNc1ccc(Nc2nc(C(F)(F)F)nc3c2cnn3-c2ccc(Br)cc2)cc1` [12b, 3-(((4-((1-(4-bromophenyl)-6-(trifluoromethyl)-1H-pyrazolo[3,4-d]pyrimidin-4-yl)amino)phenyl)amino)methyl)-4-phenyl-1,2,5-oxadiazole 2-oxide] as the compound, how does the “expression of metalloproteinase MMP-9” value (MMP-9) read?
Its value is “downregulation”.

What about the “expression of p53” value (p53) of the same compound?
Its value is “slight increase in the expression”.

And the “level of total ERK” value (total ERK)?
Its value is “decreased the level”.

And the “expression of p21” value (p21)?
Its value is “over-expression”.

And the “expression of p27” value (p27)?
Its value is “over-expression”.

And the “level of phosphorylated ERK” value (pERK)?
The value was “decreased the level”.

What about the IC50 (VEGFR-2) of the same compound?
Its IC50 is 92 nM and 90 nM.

What about the “cell-cycle arrest at subG1” value (HepG2 cells [1]) of the same compound?
Its value is 24.

What about the “rate of wound healing” value (HepG2 cells [2]) of the same compound?
The value was “decreased the rate of wound healing”.

What about the “expression of Bax” value (Bax) of the same compound?
The value was “over-expressed”.

And the “expression of neuronal N-cadherin” value (N-cadherin)?
Its value is “lower expression”.

And the “expression of epithelial E-cadherin” value (E-cadherin)?
Its value is “increased expression”.

And the “expression of BCL-2” value (BCL-2)?
The value was “low level”.

What about the “morphological changes in HSF cells” value [3] of the same compound?
Its value is “did not cause any morphological changes”.
